Results taken from publication PMC10165273, “Itch receptor MRGPRX4 interacts with the receptor activity–modifying proteins” (The Journal of Biological Chemistry, 2023).
Where “and” joins values, the source holds several entries; their conditions need not be identical. Identical values can stand only once. Like-named read-outs stand apart in the source and are kept apart here.

Molecular target: T1, MRGPRX4 (Homo sapiens, UniProt Q96LA9)
T1 construct: expressed in transfected cells; host or cells: HEK293T
Assay: IP1 accumulation HTRF assay, MRGPRX4
Type: cell-based
Design: key to IP1 Basal / IP1 accumulation with YM (Figure 1c) / response to agonist, MRGPRX4 / IP1 accumulation: % IP1: unstimulated mock-transfected = 0%, fully stimulated MRGPRX4 = 100%
Settings: for activation at 100 µM / activation at 20 µM / activation at 4 µM / activation at 0.8 µM / activation at […] / activation at 0.032 µM: 2 h, read-out: IP1 accumulation (normalized); for activation at 100 µM: log [nateglinide] (M) -4; for activation at 20 µM: log [nateglinide] (M) -4.69897; for activation at 4 µM: log [nateglinide] (M) -5.39794; for activation at 0.8 µM: log [nateglinide] (M) -6.09691; for activation at […]: log [nateglinide] (M) -6.79588; for activation at 0.032 µM: log [nateglinide] (M) -7.49485; for normalized IP1 accumulation: HA-MRGX4-1D4

[1] = Dox 40 ng/mL, Supplementary Figure 5b
[2] = Dox 40 ng/mL, Supplementary Figure 5c
[3] = Dox 1100 ng/mL, Supplementary Figure 5a
[4] = Dox 1100 ng/mL, Supplementary Figure 5b
[5] = Dox 1100 ng/mL, Supplementary Figure 5c
[6] = Dox 3300 ng/mL, Supplementary Figure 5a
[7] = Dox 3300 ng/mL, Supplementary Figure 5b
[8] = Dox 3300 ng/mL, Supplementary Figure 5c
[9] = MRGPRX4 (2pg), Dox 3300ng/mL, Supplementary Figure 5b
[10] = MRGPRX4, Supplementary Figure 5d-g
[11] = Dox 13 ng/mL, Supplementary Figure 5a
[12] = Dox 13 ng/mL, Supplementary Figure 5c
[13] = Dox 40 ng/mL, Supplementary Figure 5a

T1 sequence (Q96LA9 whole entry): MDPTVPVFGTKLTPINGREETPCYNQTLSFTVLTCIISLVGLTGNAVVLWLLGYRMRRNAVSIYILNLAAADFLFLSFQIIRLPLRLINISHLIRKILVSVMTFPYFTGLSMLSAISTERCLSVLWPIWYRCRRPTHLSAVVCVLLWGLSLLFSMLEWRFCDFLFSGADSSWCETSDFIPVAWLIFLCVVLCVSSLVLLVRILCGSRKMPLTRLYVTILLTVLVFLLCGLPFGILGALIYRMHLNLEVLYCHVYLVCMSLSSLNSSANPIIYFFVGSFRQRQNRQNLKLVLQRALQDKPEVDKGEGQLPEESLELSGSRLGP

## CC(C)[C@H]1CC[C@H](C(=O)N[C@H](Cc2ccccc2)C(=O)O)CC1 [Nateglinide]
[1]
  activation at 100 µM: 17.6%
  activation at 20 µM: 8.95%
[2]
  activation at 100 µM: 58%
  activation at 20 µM: 33.6%
  activation at 4 µM: 7.47%
[3]
  activation at 100 µM: 97.1%
  activation at 20 µM: 83.3%
  activation at 4 µM: 46.5%
  activation at 0.8 µM: 19.7%
  activation at […]: 11.5%
  activation at 0.032 µM: 10.3%
[4]
  activation at 100 µM: 25.8%
  activation at 20 µM: 17.4%
  activation at 4 µM: 4.19%
[5]
  activation at 100 µM: 81.1%
  activation at 20 µM: 57.5%
  activation at 4 µM: 20.2%
  activation at 0.8 µM: 3.18%
[6]
  activation at 100 µM: 100%
  activation at 20 µM: 86.8%
  activation at 4 µM: 44%
  activation at 0.8 µM: 19.9%
  activation at […]: 11.6%
  activation at 0.032 µM: 10.9%
[7]
  activation at 100 µM: 32.5%
  activation at 20 µM: 23.5%
  activation at 4 µM: 8.69%
[8]
  activation at 100 µM: 100%
  activation at 20 µM: 74.7%
  activation at 4 µM: 32.8%
  activation at 0.8 µM: 10.1%
  activation at […]: 7.74%
  activation at 0.032 µM: 3.46%
[9]
  activation at 100 µM: 100%
  activation at 20 µM: 86.8%
  activation at 4 µM: 44%
  activation at 0.8 µM: 19.9%
  activation at […]: 11.6%
  activation at 0.032 µM: 10.9%
[10]
  activation at 100 µM: 100%
  activation at 20 µM: 96.1%
  activation at 4 µM: 56.6%
  activation at 0.8 µM: 23.8%
  activation at […]: 11.3%
  activation at 0.032 µM: 13.6%
MRGPRX4 no dox, Supplementary Figure 5d-g
  activation at 100 µM: 1.03%
No Dox, Supplementary Figure 5a
  activation at 100 µM: 17%
No Dox, Supplementary Figure 5c
  activation at 100 µM: 17%
[11]
  activation at 20 µM: 62.9%
  activation at 4 µM: 29.5%
  activation at 0.8 µM: 10.1%
  activation at […]: 5.08%
  activation at 0.032 µM: 4.57%
Dox 13 ng/mL, Supplementary Figure 5b
  activation at 20 µM: 6.04%
[12]
  activation at 20 µM: 25.4%
  activation at 4 µM: 4.86%
[13]
  activation at 20 µM: 71.8%
  activation at 4 µM: 32.9%
  activation at 0.8 µM: 12.5%
  activation at […]: 6.44%
  activation at 0.032 µM: 5.36%
Figure 4a bottom, MRGPRX4 alone (reference = 100), individual replicates
  efficacy: 100
Figure 4a bottom, MRGPRX4 alone (reference = 100), individual replicates, read-out: efficacy
  Emax: 100%
Figure 4a top, MRGPRX4 alone (no RAMP), individual replicates, read-out: potency (converted)
  EC50: 7.29 µM and 10.3 µM and 7.1 µM
Figure 4c-f, agonist 100µM, MRGPRX4 alone (reference = 100)
  response to agonist, MRGPRX4: 100
Log [agonist] (M) -4
  normalized IP1 accumulation: 81.552 and 83.6202
Log [agonist] (M) -4.69897
  normalized IP1 accumulation: 71.4189 and 62.4618
Log [agonist] (M) -5.39794
  normalized IP1 accumulation: 34.1012 and 34.3253
Log [agonist] (M) -6.09691
  normalized IP1 accumulation: 18.0339 and 19.9037
Log [agonist] (M) -6.79588
  normalized IP1 accumulation: 15.3353 and 14.0745
Log [agonist] (M) -7.49485
  normalized IP1 accumulation: 14.2615 and 16.0131
HEK-293T, MRGPRX4 (Fig. 1A), HEK293T, normalized to 100 μM nateglinide, read-out: IP1 Emax
  Emax: 103%
HEK-293T, MRGPRX4 (Fig. 1A), HEK293T, normalized to 100 μM nateglinide, read-out: IP1 span
  Emax: 87.6%
MRGPRX4 0.125 pg DNA/cell, individual experiments, read-out: efficacy (Figure 1b bottom)
  Emax: 77.3%
MRGPRX4 0.125 pg DNA/cell, individual experiments, read-out: potency (Figure 1b top) (converted)
  EC50: 15.9 µM and 12.3 µM and 12.6 µM
MRGPRX4 0.25 pg DNA/cell, individual experiments, read-out: efficacy (Figure 1b bottom)
  Emax: 81.4%
